Reference: ChEMBL document CHEMBL5360537, “From lead to clinic: A review of the structural design of P2X7R antagonists” (Eur J Med Chem, 2023)

Key:
P2X purinoceptor 7 [1] = molecular target: T1, P2X purinoceptor 7 (Homo sapiens, UniProt Q99572); experiment: Antagonist activity at human P2X7 receptor
T1 sequence (Q99572 whole entry): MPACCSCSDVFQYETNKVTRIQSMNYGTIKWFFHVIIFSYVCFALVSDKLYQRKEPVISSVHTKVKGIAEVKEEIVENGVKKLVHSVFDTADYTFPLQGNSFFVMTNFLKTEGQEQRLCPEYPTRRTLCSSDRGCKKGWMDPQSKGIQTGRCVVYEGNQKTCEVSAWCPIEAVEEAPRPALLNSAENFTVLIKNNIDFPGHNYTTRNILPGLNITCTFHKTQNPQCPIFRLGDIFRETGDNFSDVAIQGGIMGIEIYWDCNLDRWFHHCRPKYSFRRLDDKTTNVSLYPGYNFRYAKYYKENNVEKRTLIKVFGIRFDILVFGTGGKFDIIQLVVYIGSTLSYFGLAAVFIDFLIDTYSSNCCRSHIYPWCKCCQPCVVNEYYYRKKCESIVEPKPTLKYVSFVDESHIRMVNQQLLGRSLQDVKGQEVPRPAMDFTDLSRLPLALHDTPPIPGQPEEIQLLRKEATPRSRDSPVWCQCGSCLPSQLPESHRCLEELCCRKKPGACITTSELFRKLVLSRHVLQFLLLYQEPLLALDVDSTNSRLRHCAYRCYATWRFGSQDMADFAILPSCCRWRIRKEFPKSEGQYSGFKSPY

P2X purinoceptor 7 [2] = molecular target: T1, P2X purinoceptor 7; experiment: Antagonist activity at human P2X7 receptor expressed in HEK293 by fluorescence plate reader analysis; assay type: cell-based
P2X purinoceptor 7 [3] = molecular target: T1, P2X purinoceptor 7; experiment: Inhibition of P2X7 in human THP-1cells assessed as reduction in YO-PRO-1 iodide dye uptake measured after 24 hrs by fluorescence based assay; assay type: cell-based
P2X purinoceptor 7 [4] = molecular target: T1, P2X purinoceptor 7; experiment: Inhibition of P2X7 (unknown origin) assessed as reduction in IL-1 beta release
P2X purinoceptor 7 [5] = molecular target: T1, P2X purinoceptor 7; experiment: Antagonist activity at human P2X7 receptor expressed in 1321N1 cells by FLIPR assay; assay type: cell-based
P2X purinoceptor 7 [6] = molecular target: T1, P2X purinoceptor 7; experiment: Inhibition of human P2X7 receptor transfected in HEK293 cells by calcium influx assay; assay type: cell-based
P2X purinoceptor 7 [7] = molecular target: T1, P2X purinoceptor 7; experiment: Antagonist activity at human P2X7 receptor by calcium flux assay
P2X purinoceptor 7 [8] = molecular target: T2, P2X purinoceptor 7 (Mus musculus, UniProt Q9Z1M0); experiment: Antagonist activity at mouse P2X7 receptor by calcium flux assay
T2 sequence (Q9Z1M0 whole entry): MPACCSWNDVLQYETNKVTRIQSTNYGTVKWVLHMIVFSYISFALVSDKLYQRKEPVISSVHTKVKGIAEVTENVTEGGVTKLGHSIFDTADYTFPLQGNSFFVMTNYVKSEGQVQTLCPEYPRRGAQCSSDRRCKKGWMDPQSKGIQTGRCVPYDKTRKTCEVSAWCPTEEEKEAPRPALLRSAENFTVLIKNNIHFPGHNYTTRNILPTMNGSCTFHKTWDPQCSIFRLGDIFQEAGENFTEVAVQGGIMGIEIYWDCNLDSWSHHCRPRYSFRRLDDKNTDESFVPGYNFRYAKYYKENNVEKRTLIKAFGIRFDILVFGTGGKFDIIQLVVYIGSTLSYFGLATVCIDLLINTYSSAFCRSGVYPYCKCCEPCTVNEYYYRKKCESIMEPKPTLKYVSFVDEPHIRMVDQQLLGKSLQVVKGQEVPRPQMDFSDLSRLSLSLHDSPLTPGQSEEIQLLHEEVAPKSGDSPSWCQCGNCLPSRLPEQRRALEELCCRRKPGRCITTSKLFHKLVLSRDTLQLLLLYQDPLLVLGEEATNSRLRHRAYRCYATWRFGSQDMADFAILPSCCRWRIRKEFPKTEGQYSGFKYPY

P2X purinoceptor 7 [9] = molecular target: T3, P2X purinoceptor 7 (Rattus norvegicus, UniProt Q64663); experiment: Antagonist activity at rat P2X7 receptor by calcium flux assay
T3 sequence (Q64663 whole entry): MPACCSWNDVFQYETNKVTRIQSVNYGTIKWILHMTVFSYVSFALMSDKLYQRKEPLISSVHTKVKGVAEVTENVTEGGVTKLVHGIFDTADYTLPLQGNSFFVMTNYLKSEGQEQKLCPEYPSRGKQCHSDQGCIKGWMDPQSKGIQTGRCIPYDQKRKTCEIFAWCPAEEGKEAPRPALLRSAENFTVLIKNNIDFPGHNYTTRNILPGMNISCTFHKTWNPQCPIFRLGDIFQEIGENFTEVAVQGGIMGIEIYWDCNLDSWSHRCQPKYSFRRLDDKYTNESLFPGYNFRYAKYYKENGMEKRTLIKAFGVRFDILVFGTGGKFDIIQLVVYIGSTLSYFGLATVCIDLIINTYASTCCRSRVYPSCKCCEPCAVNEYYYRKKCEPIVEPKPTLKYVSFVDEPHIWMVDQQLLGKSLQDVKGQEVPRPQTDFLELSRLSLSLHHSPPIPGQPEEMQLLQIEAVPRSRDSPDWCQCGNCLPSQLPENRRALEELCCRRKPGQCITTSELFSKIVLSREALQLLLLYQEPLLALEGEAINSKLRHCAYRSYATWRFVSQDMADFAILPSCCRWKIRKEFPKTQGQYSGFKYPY

[10] = molecular target: T4, P2X purinoceptor 7 (Mus musculus) (UniProt Q9Z1M0); experiment: Antagonist activity at P2X7 receptor in mouse Peritoneal macrophage cells assessed as ATP induced dye uptake at 10 uM relative to control; assay type: cell-based
T4 sequence (whole entry): T2 sequence (Q9Z1M0 whole entry)

P2X purinoceptor 7 [11] = molecular target: T2, P2X purinoceptor 7; experiment: Antagonist activity at P2X7 receptor in mouse Peritoneal macrophage cells assessed as reduction in ATP induced IL-1 beta release; assay type: cell-based
P2X purinoceptor 7 [12] = molecular target: T1, P2X purinoceptor 7; experiment: Antagonist activity at P2X7 receptor in human THP-1 cells assessed as reduction in ATP induced IL-1 beta release; assay type: cell-based

COc1ccc(Nc2nc(=O)cc3n2C(c2ccccc2)CN3C)c(C)c1 (stereo not drawn)
IC50 (P2X purinoceptor 7 [1]): < 10 nM

COc1ccc(Nc2nc(=O)c3[nH]cnc3n2Cc2ccc(F)c(F)c2)c(C)c1
IC50 (P2X purinoceptor 7 [1]): < 10 nM

COCCn1cc(C(=O)NCc2ccc(C(F)(F)F)cc2)c2c(Cl)cccc21
IC50 (P2X purinoceptor 7 [2]): > 1000 nM

C[C@H](CO)n1ccc2c(NC(=O)CC34CC5CC(CC(C5)C3)C4)cccc2c1=O
IC50 (P2X purinoceptor 7 [3]): 520 nM | IC50 (P2X purinoceptor 7 [4]): 1 nM

Cc1c(F)cc(CO)cc1Nc1nc(=O)cnn1Cc1cc(F)c(F)c(F)c1
IC50 (P2X purinoceptor 7 [5]): 3 nM

O=C(NCc1ccc(F)cc1Cl)[C@]1(F)CC[C@H](OCCO)c2ncccc21
IC50 (P2X purinoceptor 7 [6]): < 50 nM

CCc1cccc(Nc2nc(=O)c3[nH]cnc3n2Cc2ccc(F)cc2)c1CC
IC50 (P2X purinoceptor 7 [1]): < 10 nM

O=c1onc(Cc2c(F)cccc2Cl)n1CC1CCCCCC1
IC50 (P2X purinoceptor 7 [7]): < 200 nM | IC50 (P2X purinoceptor 7 [8]): 200 nM | IC50 (P2X purinoceptor 7 [9]): < 200 nM

O=c1snc(Cc2c(F)cccc2Cl)n1CC1CCC(F)(F)CC1
IC50 (P2X purinoceptor 7 [7]): < 200 nM | IC50 (P2X purinoceptor 7 [8]): < 200 nM | IC50 (P2X purinoceptor 7 [9]): < 200 nM

O=c1onc(Cc2c(F)cccc2Cl)n1CC1CC2CCC1C2 (stereo not drawn)
IC50 (P2X purinoceptor 7 [7]): < 200 nM | IC50 (P2X purinoceptor 7 [8]): 200 nM | IC50 (P2X purinoceptor 7 [9]): < 200 nM

Cc1ncccc1Cc1noc(=O)n1CC1CCC(F)(F)CC1
IC50 (P2X purinoceptor 7 [7]): 200 nM | IC50 (P2X purinoceptor 7 [8]): 1000 nM | IC50 (P2X purinoceptor 7 [9]): 1000 nM

CN1C(=O)N=C(NCc2ccccc2)N2C1=NCC2c1cc(F)c(F)c(F)c1 (stereo not drawn)
IC50 (P2X purinoceptor 7 [1]): < 10 nM

CS(=O)(=O)C[C@]1(O)CC[C@@](F)(C(=O)NCc2ccc(Cl)cc2Cl)c2cccnc21
IC50 (P2X purinoceptor 7 [6]): < 50 nM

O=C1CCC(C(=O)NCc2cccc(C(F)(F)F)c2Cl)c2cccnc21 (stereo not drawn)
IC50 (P2X purinoceptor 7 [6]): < 50 nM

Cc1ccc(N2CCCC2=O)cc1Nc1nc(=O)cnn1Cc1cc(F)c(F)c(F)c1
IC50 (P2X purinoceptor 7 [5]): 5.7 nM

C[C@@H](CO)n1ccc2c(NC(=O)CC34CC5CC(CC(C5)C3)C4)cccc2c1=O
IC50 (P2X purinoceptor 7 [3]): 107 nM | IC50 (P2X purinoceptor 7 [4]): 0.15 nM

COc1cc(Nc2nc(=O)c(F)cn2Cc2cc(F)c(F)c(F)c2)c(C)c(F)c1OC
IC50 (P2X purinoceptor 7 [5]): < 10 nM

O=c1onc(Cc2c(F)cccc2Cl)n1CC1CCC(F)(F)CC1
IC50 (P2X purinoceptor 7 [7]): < 200 nM | IC50 (P2X purinoceptor 7 [8]): < 200 nM | IC50 (P2X purinoceptor 7 [9]): < 200 nM

C[C@@H]1CCC[C@](O)(CNC(=O)c2cn(CC3CCCO3)c3cccc(Cl)c23)C1 (stereo partly drawn)
IC50 (P2X purinoceptor 7 [2]): 10 nM

O=c1onc(Cc2c(F)cccc2Cl)n1CC1CCC(C(F)(F)F)CC1 (stereo not drawn)
IC50 (P2X purinoceptor 7 [7]): < 200 nM | IC50 (P2X purinoceptor 7 [8]): < 200 nM | IC50 (P2X purinoceptor 7 [9]): < 200 nM

O=c1onc(Cc2ccccc2Cl)n1CC1CCC(F)(F)CC1
IC50 (P2X purinoceptor 7 [7]): < 200 nM | IC50 (P2X purinoceptor 7 [8]): 200 nM | IC50 (P2X purinoceptor 7 [9]): < 200 nM

COc1ccc(Nc2nc(=O)c3nn(C)cc3n2Cc2cc(F)c(F)c(F)c2)c(C)c1
IC50 (P2X purinoceptor 7 [1]): < 10 nM

CCN1C(=O)N=C(Nc2cc(C)c(C)cc2C)N2C1=NCC2c1ccccc1 (stereo not drawn)
IC50 (P2X purinoceptor 7 [1]): < 10 nM

O=C1CO[C@]2(CC[C@@](F)(C(=O)NCc3ccc(Cl)cc3Cl)c3cccnc32)CN1
IC50 (P2X purinoceptor 7 [6]): < 50 nM

CCOC(C)CNC(=O)c1cn(C2COC2)c2cccc(Cl)c12 (stereo not drawn)
IC50 (P2X purinoceptor 7 [2]): > 1000 nM

Cc1noc(C)c1Cc1noc(=O)n1CC1CCC(F)(F)CC1
IC50 (P2X purinoceptor 7 [7]): < 200 nM | IC50 (P2X purinoceptor 7 [8]): 1000 nM | IC50 (P2X purinoceptor 7 [9]): 200 nM

Cc1c(Cl)cccc1Nc1nc(=O)cc2n1C(c1ccccc1)COC2 (stereo not drawn)
IC50 (P2X purinoceptor 7 [1]): 1.8 nM

CC1=C(C(c2ccc(C)cc2)n2cc(COCc3ccco3)nn2)C(=O)c2ccccc2C1=O (stereo not drawn)
inhibition [10]: < 60%

CC1=C(Cn2cc(COCc3ccco3)nn2)C(=O)c2ccccc2C1=O
inhibition ([10]; filed as antagonist): 60% | IC50 (P2X purinoceptor 7 [11]): 160 µM | IC50 (P2X purinoceptor 7 [12]): 184 µM

CC1=C(C(c2ccccc2)n2cc(COCc3ccco3)nn2)C(=O)c2ccccc2C1=O (stereo not drawn)
inhibition ([10]; filed as antagonist): 60% | IC50 (P2X purinoceptor 7 [11]): 145 µM | IC50 (P2X purinoceptor 7 [12]): 140 µM

CC1CCCC(O)(CNC(=O)c2cn(C3COC3)c3cccc(Cl)c23)C1 (stereo not drawn)
IC50 (P2X purinoceptor 7 [2]): < 10 nM
